row,Structure (SMILES),melting point [°C]
1,N=C(O[C@@H]1CCCC=C1Cl)C(Cl)(Cl)Cl,78 to 79
2,CC(=O)c1ccccc1NC(=O)C(Cl)(Cl)Cl,113
3,CCN(CC)S(=O)(=O)c1cc(C)c2c(c1)S(=O)(=O)NC(C1CCCCC1)=N2,206 to 208
4,COc1ncccc1NC(=NC#N)NC(NC(=O)c1cc(F)cc(F)c1)C(C)(Cl)Cl (stereo not given),125 to 126
5,OC(CCc1cccnc1)CSc1ccc(-c2ccccc2)cc1 (stereo not given),128 to 130
6,CCCCCCC(=O)C(NC(=O)C=Cc1ccccc1)C(=O)OC (stereo not given),85 to 86
7,CN1CCN(c2ccc3nc(N)c(C#N)c(Cl)c3c2)CC1,189
8,CCOC(=O)C(C(=O)OCC)C(=O)c1cc(OC)c(OC)c([N+](=O)[O-])c1,70
9,O=C1CC2(CN1)CC(=O)c1cc(Cl)ccc12 (stereo not given),220 to 222
10,COC(=O)[C@H](COCc1ccccc1)NC(=O)Nc1n[nH]c(=S)s1,84 to 86
11,OC(CON=C1CCCc2sccc21)CN1CCCC1 (stereo not given),136
12,CCCCCCCNC(=O)Nc1ccc(-n2nc(C(F)(F)F)cc2C(F)(F)F)cc1,129 to 130
13,CCOC(=O)c1c(-c2cccc(F)c2)c(Cl)n2c1CNCC2,96 to 98
14,Cc1ccc(C(=O)NCC(N)=O)cc1-n1c(C)cc(OCc2ccccc2CNC(=O)Nc2cc(C(C)(C)C)nn2-c2ccc(O)c(Cl)c2)c(Cl)c1=O,228 to 230
15,O=C(O)C1CCc2cc(Cl)c(C3CCCCC3)cc21 (stereo not given),140 to 143
16,COC(=O)CCSC(SCCC(=O)OC)c1cccc(C=Cc2nc3cc(Cl)ccc3o2)c1,66 to 67
17,C=CCSc1ccc(Oc2ccc(C)cc2)nn1,115 to 117
18,CC(C)(C)OC(=O)C=C(O)c1cccnc1Oc1ccc(F)cc1,87 to 89
19,CCOCc1nc2c(NC(=O)C(C)C)nc3ccccc3c2n1CC(C)(C)NS(C)(=O)=O,67 to 70
20,COc1cc2c(Nc3cccc(C)c3)ncnc2cc1OC(C)C,218 to 221
21,CCCc1nc2c(c(C)c(C)n3nnnc23)n1CC(C)(C)NC(C)=O,237 to 240

row,Structure (SMILES),melting point [°C]
1,CS(=O)(=O)CCN1C(=O)CN=C(c2ccccc2F)c2cc(Cl)ccc21,155 to 156
2,COc1ccc2ncc(C#N)c(Nc3ccc(Cl)cc3F)c2c1,> 250
3,Ic1cccc2c1CCOC2,54 to 56
4,Cc1cc(C=O)ccc1C(=O)O,196 to 198
5,C[C@@H]1CN(C(=O)OC(C)(C)C)C[C@H]2Cc3cc(F)c(CO)nc3N21,91 to 93
6,Cc1cc(N2CCC(N3CCCC3C)C2)ccc1C(=O)NC1CCOCC1 (stereo not given),147
7,COc1ccc2c(c1)C13CCN(C#N)C(C2)C1(OC)CCC(=O)C3 (stereo not given),172 to 176
8,CC(C)(C)n1nc(Nc2ccccc2)c(C#N)c1N,123 to 125
9,CSCC(=O)[C@H](CC(C)C)NC(=O)[C@H](CC(C)C)NC(=O)OCc1ccccc1,96 to 97
10,CC(=O)Nc1cccc(N(C)C)n1,118 to 119
11,COc1cc(C(=O)O)ccc1Cn1cc(CC(C)C(=O)N(C)C)c2ccc(C(=O)NCC3CCCC3)cc21 (stereo not given),120 to 122
12,Cc1cc([C@H]2[C@H](C(=O)Nc3ccc(F)c(F)c3)C2(C)C)ccc1S(N)(=O)=O (relative stereo),195 to 198
13,C[C@@H](NC(=O)OC(C)(C)C)c1nc2c(C(F)(F)F)cccc2c(O)c1C(=O)Nc1nccs1,265
14,Cc1cc(C)cc(Oc2cc(Br)cc(S(=O)(=O)N3CCN(C(=O)OC(C)(C)C)CC3)c2)c1,155
15,N#CC(NCc1cccnc1)c1ccoc1 (stereo not given),80 to 82
16,COC(=O)COc1ccsc1-c1nsc2ccc(-n3c(=O)cc(C(F)(F)F)n(C)c3=O)cc12,73 to 79
17,O=Cc1cc(O)c(O)c([N+](=O)[O-])c1,142 to 143
18,C[C@H]1CNCC[C@@]12OC(=O)c1ccccc12 (racemic),131
19,CNC(=NCCSCc1ccc2nc[nH]c2c1)NC#N,191
20,Cc1c(CC(N)=O)c2cc(OCc3nc4ccccc4s3)ccc2n1Cc1ccc(Cl)cc1,169 to 170
21,CN(CC(=O)NO)C(=O)[C@H]1CCCC[C@H]1C(=O)O (relative stereo),131 to 133

row,Structure (SMILES),melting point [°C]
1,O=C(NC1CCCc2sccc21)N1CCOCC1 (stereo not given),152 to 154
2,CC(C)OC(=O)N1CCC(c2ccc3oc(-c4ccc(C(F)(F)F)cc4)nc3c2)CC1,145 to 148
3,CN1CCN2c3ccc([N+](=O)[O-])cc3C(c3cccs3)=NCC2C1 (stereo not given),174 to 175
4,Oc1cc(-c2ncnc(C(F)F)c2Cl)c(F)cc1Cl,141 to 143
5,CS(=O)(=O)c1ccc(-c2c(-c3ccc(Cl)cc3)[nH]c3ccc(Cl)cc23)cc1,269 to 271
6,Oc1ccc(C2Oc3ccccc3C=C2c2ccc(OC3CCCCO3)cc2)cc1 (stereo not given),110
7,CSCC(=O)Nc1cccc(C(F)(F)F)c1,75 to 77
8,Cc1cccc(NC(=O)NC2CN(Cc3ccccc3)c3ccccc3N(CC(=O)c3ccccc3C)C2=O)c1 (stereo not given),169 to 172
9,O=Cc1ccc(Sc2nc3cc(Cl)c(Cl)cc3[nH]2)o1,170
10,CCOC(=O)C(O)=Cc1ncc(Cc2ccc(F)cc2)s1,160 to 162
11,COc1ccc2ncc(C(N)=O)cc2c1,93.7 to 95.7
12,CS(=O)(=O)c1ccc(-c2cc(C(=O)CCCO[N+](=O)[O-])nn2-c2ccc(F)cc2)cc1,134 to 136
13,COc1cc(CC(C)(C)NC(=O)c2ccc(Cl)nc2)cc2c1OC(C)(C)C2,118 to 119
14,CC1(C)Oc2ccc([N+](=O)[O-])cc2C=C1CBr,107
15,O=C(Nc1ccccc1S(=O)(=O)F)NC1CCCCC1,177
16,NC(=O)N(O)[C@H]1CC[C@H](c2cccc(F)c2)C1 (relative stereo),113 to 114
17,COc1cc(C(=O)NS(=O)(=O)c2ccccc2C)ccc1Cc1cn(C)c2ccc(CC(C)NC(=O)N(C)C)cc12 (stereo not given),125 to 135
18,COCC(=O)Nc1c(C(=O)CC(=O)Nc2nccs2)cccc1C(F)(F)F,152
19,Cc1onc2c1NC(=O)COC2(C)c1ccccc1 (stereo not given),177 to 178
20,O=Cc1cn(CCCCO)c2ncccc12,90
21,CC(C)(C)OC(=O)N1CC2CC1C(=O)S2 (stereo not given),91

# Other lines, results leading:
row,melting point [°C],Structure (SMILES)
1,231 to 232,COC(=O)C1=C(C)Nc2ccccc2N(C(C)=O)C1c1cccc([N+](=O)[O-])c1 (stereo not given)
2,165 to 167,CCC1(O)CC(=O)OCc2c1ccn(Cc1cc3cc4c(cc3nc1I)OCCO4)c2=O (stereo not given)
3,222 to 224,O=C1c2cccc3cccc(c23)C(=O)N1CCI
4,124 to 126,CCOC(=O)c1nnn(-c2ccccc2)c1N
5,229 to 231,NCc1ccc(N2CCCN(c3ccc(CCC(=O)O)cc3)C2=O)cc1
6,91 to 93,COc1ccc(-n2nc(CCCNO)cc2-c2ccc(Cl)cc2)cc1
7,248,Cn1cc(O)c(=O)c2cccc(F)c21
8,116 to 117,CC(=O)Oc1ccccc1-c1ccc(C(C)=O)cc1
9,112 to 114,O=C(Cc1ccccc1F)c1ccc(I)cc1
10,175 to 176,COc1ccc(-c2nn(Cc3ccc(Cl)cc3)c(=O)cc2-c2ccncc2)cc1
11,106 to 108,CC(C)(C)[Si](C)(C)Oc1ccccc1-c1cc(-c2cccc([N+](=O)[O-])c2)c(C#N)c(NC(=O)c2cccs2)n1
12,146 to 148,N=C(NC=Cc1ccc([N+](=O)[O-])cc1)c1cccc(N)c1
13,312,O=c1ccc2cccc(Oc3cc(-c4ccc(C(F)(F)F)cc4)ncn3)c2[nH]1
14,78 to 80,Cc1cc(N2CCN(CCOc3ccccc3)C2=O)sc1C(=O)NCc1cccnc1
15,138 to 140,"CS(=O)C1CC(=O)N1CC(=O)NCc1ccccc1 (single isomer, unassigned; (-))"
16,107,O=C(c1ccccc1)c1nc(Cl)ccc1[N+](=O)[O-]
17,198,CC(O)C(=O)c1ccc(C(=O)Nc2ccccc2N)c(N)c1 (stereo not given)
18,228 to 229,CN1CCC(=O)N(c2cccc3ccccc23)C1=O
19,214 to 216,CS(=O)(=O)c1ccc(-c2cnn(-c3ccc(Cl)cc3)c(=O)c2-c2ccc(F)cc2)cc1

row,melting point [°C],Structure (SMILES)
1,114 to 117,CC(=O)N1CCC(n2nc(-c3c(-c4ccccc4)nn4ccccc34)ccc2=O)CC1
2,114 to 115,CC(C)c1nc(-c2cccc3c2OCO3)cc(-c2ccc(F)cc2)c1CO
3,202 to 203,O=c1ccn(-c2ccncc2)nc1-c1ccnn1-c1ccccc1
4,200 to 202,CC(C)OC(=O)Nc1cccc2c1C(=O)C1(O)c3ccc(C(C)C)cc3OC21O (stereo not given)
5,102 to 104,CCCc1cc(Cl)c2oc(-c3ccccc3)c(C)c2c1O
6,97 to 99,COC(=O)CC(c1ccc(C)cc1)N1C(=O)c2ccccc2C1=O (stereo not given)
7,118 to 120,Cn1c(C(=O)c2ccc(F)cc2)cc2cc(OCc3ccccc3)ccc21
8,134 to 137,COc1ccc(Cn2nnc(-c3ccc(Cl)cc3Cl)c2N)cc1
9,128 to 132,O=C(O)c1ccc(S(=O)(=O)c2ccccc2)cc1
10,200 to 201,CCOC(=O)NN=Cc1cn(-c2ccccc2)nc1-c1ccc([N+](=O)[O-])o1
11,242 to 247,O=C(O)c1cc2cnc3ccccc3n2c1
12,137 to 138,Cc1nc(N2CCN(CCC3CC3)C2=O)sc1C(=O)NCc1ccccc1
13,128 to 129,c1ccc(-c2ccc(-c3nc(COc4ccc(CCCn5ccnc5)cc4)co3)s2)cc1
14,82.5 to 84.2,CCSC(=O)Cc1cc(Oc2ccc(C(F)(F)F)cc2Cl)ccc1[N+](=O)[O-]
15,130,O=C(NCCCl)NCC1(Cc2ccccc2)CC(=O)C(OCc2ccccc2)=CN1 (stereo not given)
16,135 to 136,COc1ccc(NC2C=CC3=Nc4ccccc4SC3=C2)cc1 (stereo not given)
17,237 to 239,CCCSC1=NSc2cc(C)cnc2N1Cc1ccc(-c2ccccc2C(=O)O)cc1
18,104 to 105,CCn1c2cc(C)ccc2c2ccc3ccccc3c21

# From a melting point compilation (Tetko et al.; mined from patent text by program, amines drawn as free bases though some values may be those of a salt)
